Measurements from US20230150981A1, “N-HETEROARYLALKYL-2-(HETEROCYCLYL AND HETEROCYCLYLMETHYL) ACETAMIDE DERIVATIVES AS SSTR4 AGONISTS” (Takeda Pharmaceutical Compnay Limited, priority 2020, published 2023).

Legend:
SSTR4 [1] = target: T1, SSTR4 (Homo sapiens, UniProt P31391); experiment: SSTR4 I-125 somatostatin competition binding assay (CHO-K1 membranes); conditions: competition with I-125 somatostatin, membranes from CHO-K1 overexpressing SSTR4; read-out: SSTR4 Binding pIC50 (converted)
T1 construct: host or cells: CHO-K1
Procedure, shortened: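 CHO-K1 membranes overexpressing SSTR4 (1 μg/well) were incubated 60 min at room temperature with compound and I-125 somatostatin (0.2 nM in the compound mix) in 25 mM HEPES pH 7.4, 10 mM MgCl2, 1 mM CaCl2, 0.5% BSA. Bound radioligand was collected on PEI-soaked filters and scintillation-counted, with results reported as pIC50.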

SSTR1 = target: T2, SSTR1 (Homo sapiens, UniProt P30872); experiment: SSTR1 I-125 somatostatin competition binding assay for selectivity versus SSTR1 (CHO-K1 membranes); conditions: competition with I-125 somatostatin, membranes from CHO-K1 overexpressing SSTR1; read-out: SSTR1 Binding pIC50 (converted)
T2 construct: purchased Perkin Elmer ES-520-M400UA; host or cells: CHO-K1 membranes
Procedure, shortened: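 Competition binding used 10 μg CHO-K1 SSTR1 membranes and I-125 somatostatin, 0.4 nM in the compound mix before membranes were added. Buffer was 25 mM HEPES pH 7.4, 10 mM MgCl2, 1 mM CaCl2, 0.5% BSA. After 60 min at room temperature, bound tracer was filtered onto PEI-soaked filters and counted by scintillation; values are pIC50.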

SSTR4 [2] = target: T1, SSTR4; experiment: Inhibition of forskolin stimulated cAMP in CHO-K1 cells overexpressing SSTR4; assay type: cell-based; conditions: read-out: SSTR4 Activity pEC50 (converted)
Procedure, shortened: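 CHO-K1 cells overexpressing SSTR4 treated 30 min at room temperature with compound in Krebs Ringer buffer containing 0.5% BSA, 300 μM IBMX and 350 nM forskolin. Intracellular cAMP measured by HTRF LANCE Ultra (665/615 nm); pEC50 values reported.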

T1 sequence (P31391 whole entry): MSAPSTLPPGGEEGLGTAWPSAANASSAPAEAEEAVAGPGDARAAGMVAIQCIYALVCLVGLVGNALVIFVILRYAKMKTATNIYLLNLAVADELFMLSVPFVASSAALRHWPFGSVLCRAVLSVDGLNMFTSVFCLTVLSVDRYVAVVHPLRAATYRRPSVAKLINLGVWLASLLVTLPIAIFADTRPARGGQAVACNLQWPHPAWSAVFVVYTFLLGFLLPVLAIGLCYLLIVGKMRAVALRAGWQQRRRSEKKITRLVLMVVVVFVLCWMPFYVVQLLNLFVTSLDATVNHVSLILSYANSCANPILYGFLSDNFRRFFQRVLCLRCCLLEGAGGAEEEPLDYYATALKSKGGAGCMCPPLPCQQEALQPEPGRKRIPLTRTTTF
T2 sequence (P30872 whole entry): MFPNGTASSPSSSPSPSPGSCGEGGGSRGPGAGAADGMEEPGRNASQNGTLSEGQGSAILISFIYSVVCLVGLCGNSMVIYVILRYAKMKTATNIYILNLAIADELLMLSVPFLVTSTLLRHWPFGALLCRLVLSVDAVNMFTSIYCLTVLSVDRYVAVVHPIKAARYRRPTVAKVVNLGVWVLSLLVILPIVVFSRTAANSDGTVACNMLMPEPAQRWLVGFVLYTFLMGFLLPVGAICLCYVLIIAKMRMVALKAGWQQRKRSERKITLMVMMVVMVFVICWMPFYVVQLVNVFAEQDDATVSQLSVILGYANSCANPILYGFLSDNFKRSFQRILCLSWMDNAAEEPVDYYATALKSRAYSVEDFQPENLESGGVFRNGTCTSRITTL

| IC50 (SSTR4 [1]) [nM] | IC50 (SSTR1) [nM] | EC50 (SSTR4 [2]) [nM] | Structure (SMILES) |
| --- | --- | --- | --- |
| 631 | > 50100 | 100 | Cc1cccc2c(C(C)(C)NC(=O)CC3NCCC3(F)F)nccc12 (stereo not drawn) [Example 101, 2-(3,3-difluoropyrrolidin-2-yl)-N-(2-(5-methylisoquinolin-1-yl)propan-2-yl)acetamide] |
| 2000 | 39800 | 100 | Cc1cccc(OCC(C)(C)NC(=O)C[C@@H]2CCCN2C)n1 [Example 104, (S)-N-(2-methyl-1-((6-methylpyridin-2-yl)oxy)propan-2-yl)-2-(1-methylpyrrolidin-2-yl)acetamide] |
| 501 | > 50100 | 79.4 | COc1c(Cl)cccc1C(C)(C)NC(=O)C[C@@H]1CCCN1C [Example 112, (S)-N-(2-(3-chloro-2-methoxyphenyl)propan-2-yl)-2-(1-methylpyrrolidin-2-yl)acetamide] |
| 398 | 39800 | 79.4 | Cc1c(Cl)cccc1C(C)(C)NC(=O)C[C@@H]1CCCN1C [Example 118, (S)-N-(2-(3-chloro-2-methylphenyl)propan-2-yl)-2-(1-methylpyrrolidin-2-yl)acetamide] |
| 251 | 20000 | 15.8 | Cc1c(Cl)cccc1C(C)(C)NC(=O)C[C@H]1CCCN1C [Example 119, (R)-N-(2-(3-chloro-2-methylphenyl)propan-2-yl)-2-(1-methylpyrrolidin-2-yl)acetamide] |
| 79.4 | 20000 | 7.94 | CC(CN1CCC1)C(=O)NC(C)(C)c1ccccc1Cl (stereo not drawn) [Example 132, 3-(azetidin-1-yl)-N-(2-(2-chlorophenyl)propan-2-yl)-2-methylpropanamide] |
| 158 | 15800 | 10 | CC(CN1CCCC1)C(=O)NC(C)(C)c1ccccc1Cl (stereo not drawn) [Example 135, N-(2-(2-chlorophenyl)propan-2-yl)-2-methyl-3-(pyrrolidin-1-yl)propanamide] |
| 1000 | > 50100 | 158 | CN1CCC[C@H]1CC(=O)NC(C)(C)c1ccccc1F [Example 160, (S)-N-(2-(2-fluorophenyl)propan-2-yl)-2-(1-methylpyrrolidin-2-yl)acetamide] |
| 50.1 | 6310 | 3.98 | Cc1cccc(C(C)(C)NC(=O)CCN2CCC2)c1Cl [Example 161, 3-(azetidin-1-yl)-N-(2-(2-chloro-3-methylphenyl)propan-2-yl)propanamide] |
| 79.4 | 25100 | 7.94 | Cc1cccc(C(C)(C)NC(=O)CCN2CCC2)c1 [Example 162, 3-(azetidin-1-yl)-N-(2-(m-tolyl)propan-2-yl)propanamide] |
| 398 | > 50100 | 25.1 | CC(C)(NC(=O)CCN1CCC1)c1cccc(F)c1 [Example 163, 3-(azetidin-1-yl)-N-(2-(3-fluorophenyl)propan-2-yl)propanamide] |
| 39.8 | 31600 | 12.6 | CC(C)(NC(=O)CCN1CCC1)c1cccc(Cl)c1 [Example 164, 3-(azetidin-1-yl)-N-(2-(3-chlorophenyl)propan-2-yl)propanamide] |
| 79.4 | 25100 | 10 | CC(C)(NC(=O)CCN1CCC1)c1ccc(Cl)cc1 [Example 165, 3-(azetidin-1-yl)-N-(2-(4-chlorophenyl)propan-2-yl)propanamide] |
| 50.1 | 39800 | 12.6 | Cc1c(F)cccc1C(C)(C)NC(=O)CCN1CCC1 [Example 166, 3-(azetidin-1-yl)-N-(2-(3-fluoro-2-methylphenyl)propan-2-yl)propanamide] |
| 251 | > 50100 | 25.1 | O=C(CCN1CCC1)NC(c1cc(F)ccc1F)C(F)F (stereo not drawn) [Example 167, 3-(azetidin-1-yl)-N-(1-(2,5-difluorophenyl)-2,2-difluoroethyl)propanamide] |
| 25.1 | 5010 | 0.794 | COc1c(F)cccc1C(C)(C)NC(=O)C(C)CN1CCC1 (stereo not drawn) [Example 170, 3-(azetidin-1-yl)-N-(2-(3-fluoro-2-methoxyphenyl)propan-2-yl)-2-methylpropanamide] |
| 200 | > 50100 | 20 | Cc1ccc(C(CF)NC(=O)CCN2CCC2)cc1 (stereo not drawn) [Example 173, 3-(azetidin-1-yl)-N-(2-fluoro-1-(p-tolyl)ethyl)propanamide] |
| 39.8 | 6310 | 39.8 | CC(C)[C@@H](CN1CCC1)C(=O)N[C@@H](c1ccccc1)C(F)F [Example 178, (S)-2-(azetidin-1-ylmethyl)-N-((S)-2,2-difluoro-1-phenylethyl)-3-methylbutanamide] |
| 2 | 251 | 0.2 | CC(C)[C@@H](CN1CCC1)C(=O)N[C@H](c1ccccc1)C(F)F [Example 179, (S)-2-(azetidin-1-ylmethyl)-N-((R)-2,2-difluoro-1-phenylethyl)-3-methylbutanamide] |
| 3.16 | 631 | 0.126 | CC[C@@H](CN1CCC1)C(=O)N[C@H](c1ccccc1)C(F)F [Example 180, (S)-2-(azetidin-1-ylmethyl)-N-((R)-2,2-difluoro-1-phenylethyl)butanamide] |
| 2 | 126 | 0.501 | COc1ccccc1[C@@H](NC(=O)[C@H](CN1CCC1)C(C)C)C(F)F [Example 188, (S)-2-(azetidin-1-ylmethyl)-N-((R)-2,2-difluoro-1-(2-methoxyphenyl)ethyl)-3-methylbutanamide] |
| 7.94 | 631 | 1 | CC[C@@H](CN1CCC1)C(=O)N[C@H](c1ccccc1OC)C(F)F [Example 189, (S)-2-(azetidin-1-ylmethyl)-N-((R)-2,2-difluoro-1-(2-methoxyphenyl)ethyl)butanamide] |
| 2.51 | 631 | 0.794 | CC(C)[C@@H](CN1CCC1)C(=O)N[C@H](c1cccc(F)c1)C(F)F [Example 194, (S)-2-(azetidin-1-ylmethyl)-N-((R)-2,2-difluoro-1-(3-fluorophenyl)ethyl)-3-methylbutanamide] |
| 2.51 | 1000 | 2 | CC[C@@H](CN1CCC1)C(=O)N[C@H](c1cccc(F)c1)C(F)F [Example 195, (S)-2-(azetidin-1-ylmethyl)-N-((R)-2,2-difluoro-1-(3-fluorophenyl)ethyl)butanamide] |
| 3.16 | 501 | 0.2 | CC(C)[C@@H](CN1CCC1)C(=O)N[C@H](c1ccc(F)cc1)C(F)F [Example 196, (S)-2-(azetidin-1-ylmethyl)-N-((R)-2,2-difluoro-1-(4-fluorophenyl)ethyl)-3-methylbutanamide] |
| 20 | 6310 | 0.794 | O=C(CCN1CCC1)N[C@H](c1cccc(Cl)c1)C(F)F [Example 202, (R)-3-(azetidin-1-yl)-N-(1-(3-chlorophenyl)-2,2-difluoroethyl)propanamide] |
| 158 | 3980 | 3.98 | CN1CCCC1CC(=O)NC(C)(C)c1nccc2ccccc12 (stereo not drawn) [Example 203, N-(2-(isoquinolin-1-yl)propan-2-yl)-2-(1-methylpyrrolidin-2-yl)acetamide] |
| 3.16 | 631 | 0.1 | CC[C@@H](CN1CCC1)C(=O)N[C@H](c1ccc(F)cc1)C(F)F [Example 204, (S)-2-(azetidin-1-ylmethyl)-N-((R)-2,2-difluoro-1-(4-fluorophenyl)ethyl)butanamide] |
